Results: patent US6914045B2, “Glycopeptide antibiotics” (Wyeth Holdings Corporation, priority 2001, dated 2005)
Values after ≈ are worked out from the molar mass of the structure shown.

Assays:
Experiment in all cases: in vitro antibacterial evaluation, MIC by broth dilution
Format in all cases: cell-based
Enterococcus sp. = details: broth dilution, 18 hours at 35° C.
Procedure, shortened: (§1)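 Step 1: dilute antibiotic across 64-0.06 μg/mL in Muller-Hinton II […]. Step 2: inoculate at 5×10^5 CFU/mL.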

Escherichia coli = details: 18 hours at 35° C.
Procedure, shortened: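 Read-out: the lowest concentration at which the test strain fails to grow. Serial dilutions (64-0.06 μg/mL) in Muller-Hinton II […], 5×10^5 CFU/mL inoculum, NCCLS M7-A2 procedure.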

Staphylococcus sp. = details: broth dilution, 18 hours at 35° C.
Procedure, shortened: as §1

Streptococcus sp. = details: broth dilution, 18 hours at 35° C.
Procedure, shortened: as §1

- MIC Enterococcus avium (GC 4558) (Enterococcus sp.; Enterococcus avium (GC 4558)): 128 µg/mL (≈ 93.7 µM)
- MIC Enterococcus faecalis (ATCC 29212) (Enterococcus sp.; Enterococcus faecalis (ATCC 29212)): 128 µg/mL (≈ 93.7 µM)
- MIC Enterococcus faecalis (GC 4553) (Enterococcus sp.; Enterococcus faecalis (GC 4553)): 128 µg/mL (≈ 93.7 µM)
- MIC Enterococcus faecalis (GC 4554) (Enterococcus sp.; Enterococcus faecalis (GC 4554)): >128 µg/mL
- MIC Enterococcus faecalis (GC 6189) (Enterococcus sp.; Enterococcus faecalis (GC 6189)): 128 µg/mL (≈ 93.7 µM)
- MIC Enterococcus faecium (GC 2243) (Enterococcus sp.; Enterococcus faecium (GC 2243)): 128 µg/mL (≈ 93.7 µM)
- MIC Enterococcus faecium (GC 4556) (Enterococcus sp.; Enterococcus faecium (GC 4556)): 128 µg/mL (≈ 93.7 µM)
- MIC Enterococcus faecium (GC 4557) (Enterococcus sp.; Enterococcus faecium (GC 4557)): 16 µg/mL (≈ 11.7 µM)
- MIC Enterococcus faecalis (ATCC 29212) (Enterococcus sp.; strain ATCC 29212): 128 µg/mL (≈ 93.7 µM)
- MIC Enterococcus faecalis (GC 2242) (Enterococcus sp.; strain GC 2242): 128 µg/mL (≈ 93.7 µM)
- MIC Enterococcus faecium (GC 2243) (Enterococcus sp.; strain GC 2243): 128 µg/mL (≈ 93.7 µM)
- MIC Enterococcus faecalis (GC 2691) (Enterococcus sp.; strain GC 2691): 128 µg/mL (≈ 93.7 µM)
- MIC Enterococcus faecalis (GC 3059) (Enterococcus sp.; strain GC 3059): >128 µg/mL
- MIC Enterococcus faecalis (GC 4552) (Enterococcus sp.; strain GC 4552): 128 µg/mL (≈ 93.7 µM)
- MIC Enterococcus faecalis (GC 4553) (Enterococcus sp.; strain GC 4553): 128 µg/mL (≈ 93.7 µM)
- MIC Enterococcus faecalis (GC 4554) (Enterococcus sp.; strain GC 4554): >128 µg/mL
- MIC Enterococcus faecium (GC 4556) (Enterococcus sp.; strain GC 4556): 128 µg/mL (≈ 93.7 µM)
- MIC Enterococcus faecium (GC 4557) (Enterococcus sp.; strain GC 4557): 16 µg/mL (≈ 11.7 µM)
- MIC Enterococcus avium (GC 4558) (Enterococcus sp.; strain GC 4558): 128 µg/mL (≈ 93.7 µM)
- MIC Enterococcus faecalis (GC 6189) (Enterococcus sp.; strain GC 6189): 128 µg/mL (≈ 93.7 µM)
- MIC Escherichia coli (ATCC 25922) (Escherichia coli; Escherichia coli (ATCC 25922)): 128 µg/mL (≈ 93.7 µM)
- MIC Escherichia coli (GC 4559) (Escherichia coli; Escherichia coli (GC 4559)): 128 µg/mL (≈ 93.7 µM)
- MIC Escherichia coli (GC 4560) (Escherichia coli; Escherichia coli (GC 4560)): 8 µg/mL (≈ 5.86 µM)
- MIC Coagulase Negative Staphylococcus (GC 4547) (Staphylococcus sp.): 16 µg/mL (≈ 11.7 µM)
- MIC Coagulase Negative Staphylococcus (GC 4548) (Staphylococcus sp.): 8 µg/mL (≈ 5.86 µM)
- MIC Coagulase Negative Staphylococcus (GC 4549) (Staphylococcus sp.): 16 µg/mL (≈ 11.7 µM)
- MIC Coagulase Negative Staphylococcus (GC 4551) (Staphylococcus sp.): 32 µg/mL (≈ 23.4 µM)
- MIC Staphylococcus aureus (ATCC 29213) (Staphylococcus sp.): 32 µg/mL (≈ 23.4 µM)
- MIC Staphylococcus aureus (GC 1131) (Staphylococcus sp.): 32 µg/mL (≈ 23.4 µM)
- MIC Staphylococcus aureus (GC 3051) (Staphylococcus sp.): 32 µg/mL (≈ 23.4 µM)
- MIC Staphylococcus aureus (GC 3053) (Staphylococcus sp.): 64 µg/mL (≈ 46.9 µM)
- MIC Staphylococcus aureus (GC 4541) (Staphylococcus sp.): 32 µg/mL (≈ 23.4 µM)
- MIC Staphylococcus aureus (GC 4542) (Staphylococcus sp.): 32 µg/mL (≈ 23.4 µM)
- MIC Staphylococcus aureus (GC 4544) (Staphylococcus sp.): 32 µg/mL (≈ 23.4 µM)
- MIC Staphylococcus aureus (GC 4545) (Staphylococcus sp.): 16 µg/mL (≈ 11.7 µM)
- MIC Staphylococcus aureus-SMITH (GC 4543) (Staphylococcus sp.): 16 µg/mL (≈ 11.7 µM)
- MIC Staphylococcus aureus (ATCC 29213) (Staphylococcus sp.; strain ATCC 29213): 32 µg/mL (≈ 23.4 µM)
- MIC Staphylococcus aureus (GC 1131) (Staphylococcus sp.; strain GC 1131): 32 µg/mL (≈ 23.4 µM)
- MIC Staphylococcus aureus (GC 3051) (Staphylococcus sp.; strain GC 3051): 32 µg/mL (≈ 23.4 µM)
- MIC Staphylococcus aureus (GC 3053) (Staphylococcus sp.; strain GC 3053): 64 µg/mL (≈ 46.9 µM)
- MIC Staphylococcus aureus (GC 4541) (Staphylococcus sp.; strain GC 4541): 32 µg/mL (≈ 23.4 µM)
- MIC Staphylococcus aureus (GC 4542) (Staphylococcus sp.; strain GC 4542): 32 µg/mL (≈ 23.4 µM)
- MIC Staphylococcus aureus (GC 4544) (Staphylococcus sp.; strain GC 4544): 32 µg/mL (≈ 23.4 µM)
- MIC Staphylococcus aureus (GC 4545) (Staphylococcus sp.; strain GC 4545): 16 µg/mL (≈ 11.7 µM)
- MIC Coagulase Negative Staphylococcus (GC 4547) (Staphylococcus sp.; strain GC 4547): 16 µg/mL (≈ 11.7 µM)
- MIC Coagulase Negative Staphylococcus (GC 4548) (Staphylococcus sp.; strain GC 4548): 8 µg/mL (≈ 5.86 µM)
- MIC Coagulase Negative Staphylococcus (GC 4549) (Staphylococcus sp.; strain GC 4549): 16 µg/mL (≈ 11.7 µM)
- MIC Coagulase Negative Staphylococcus (GC 4551) (Staphylococcus sp.; strain GC 4551): 32 µg/mL (≈ 23.4 µM)
- MIC Staphylococcus aureus-SMITH (GC 4543) (Staphylococcus sp.; strain SMITH GC 4543): 16 µg/mL (≈ 11.7 µM)
- MIC Streptococcus pneumoniae (ATCC 6301) (Streptococcus sp.; strain ATCC 6301): 8 µg/mL (≈ 5.86 µM)
- MIC Streptococcus pneumoniae (GC 1894) (Streptococcus sp.; strain GC 1894): 4 µg/mL (≈ 2.93 µM)
- MIC Streptococcus pyogenes (GC 4563) (Streptococcus sp.; strain GC 4563): 16 µg/mL (≈ 11.7 µM)
- MIC Streptococcus agalactiae (GC 4564) (Streptococcus sp.; strain GC 4564): 16 µg/mL (≈ 11.7 µM)
- MIC Streptococcus pneumoniae (GC 4565) (Streptococcus sp.; strain GC 4565): 8 µg/mL (≈ 5.86 µM)
SMILES: CC(C)CC(=O)OCC1OC(OC2C(CO)OC(Oc3ccc(CC4NC(=O)C(Cc5ccccc5)NC(=O)CNC(=O)C(CO)NC(=O)C(C(O)C5CNC(=N)N5C5OC(CO)C(O)C(O)C5O)NC(=O)C(C(O)C5CNC(=N)N5)NC4=O)cc3)C(O)C2O)C(O)C(O)C1O (centres unmarked) [Example 283c, Cyclo[glycylphenylalanyl-O-[4-O-[6-O-(3-methylbutanoyl)-hexopyranosyl]hexopyranosyl]tyrosyl-3-(2-iminoimidazolidin-4-yl)seryl-3-(3-hexopyranosyl-2-iminoimidazolidin-4-yl)serylseryl]]
- MIC Staphylococcus haemolyticus (GC 4546) (Staphylococcus sp.): 16 µg/mL (≈ 11.7 µM)
- MIC Staphylococcus haemolyticus (GC 4546) (Staphylococcus sp.; strain GC 4546): 16 µg/mL (≈ 11.7 µM)
